# Measurements: patent US11000033B2, “Ketone or oxime compound, and herbicide” (NISSAN CHEMICAL CORPORATION, priority 2014, dated 2021)
# Assays:
# Format in all cases: in vivo
# [1] = test system: corn; experiment: Test Example 4: effect on crop by soil treatment (symbol c); settings: application herbicide amount 320 g/ha
# Procedure, shortened: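 Plants are raised in a greenhouse (25° C. to 30° C.) from spot-sown seed, which sits under about 1.5 cm of sterilized diluvial soil in a box shared with weed species.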
# [2] = test system: Cyperus difformis; experiment: Test Example 3: herbicidal effect by foliage application, Wagner pot (symbol E); settings: application herbicide amount 320 g/ha, Table 24
# Procedure, shortened: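 Alluvial soil was flooded to a depth of 0.1–0.5 cm, seeded with the weeds and rice, and kept in a greenhouse at 25–30 °C. After 14 days of growth, the foliage received a small-sprayer application of emulsion diluted to the intended rate; injury was rated at 3 weeks.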
# [3] = test system: Echinochloa oryzacola Vasing.; experiment: Test Example 1: herbicidal activity, application before weed generation in submerged conditions (symbol A); settings: application herbicide amount 320 g/ha
# Procedure, shortened: (§1)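 Pre-emergence, paddy conditions: emulsifiable formulation diluted in water, dosed onto floodwater (4 cm depth) on sowing day. Alluvial soil; weeds sown mixed; rice transplanted at 2.5-leaf stage. Greenhouse 25–30 °C, 3 wk. Score 0–5 (5 = ≥90% kill, 0 = ≤5%).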
# [4] = test system: Stellaria media; experiment: Test Example 4: herbicidal effect by soil treatment (symbol P); settings: application herbicide amount 320 g/ha
# Procedure, shortened: (§2)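 Seeds were sown in sterilized diluvial soil, covered with about 1.5 cm of soil, and the soil surface was sprayed with a water-diluted emulsion of the compound at a predetermined rate. Plants grew in a greenhouse at 25° C. to 30° C.; effects were scored visually 3 weeks after application.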
# [5] = test system: directly sowed rice plant; experiment: Test Example 3: effect on crop by foliage application, Wagner pot (symbol b); settings: application herbicide amount 320 g/ha, Table 24
# Procedure, shortened: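 Greenhouse culture at 25–30 °C of seeded rice, Cyperus difformis, Leptochloa chinensis and Echinochloa crus-galli var. crus-galli, in alluvial soil held under 0.1–0.5 cm of water in a Wagner pot.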
# [6] = test system: Scirpus juncoides; experiment: Test Example 1: herbicidal activity, application before weed generation in submerged conditions (symbol B); settings: application herbicide amount 320 g/ha
# Procedure, shortened: as §1
# [7] = test system: beet; experiment: Test Example 5: effect on crop by foliage application, plastic box (symbol f); settings: 320 g/ha, 3 weeks after application
# Procedure, shortened: (§3)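 Crop seed is sown alongside grass and broadleaf weed species in spots in sterilized diluvial soil, then covered to a depth of about 1.5 cm. Plants grow in a greenhouse kept at 25° C. to 30° C.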
# [8] = test system: Echinochloa crus-galli var. crus-galli; experiment: Test Example 4: herbicidal effect by soil treatment (symbol H); settings: application herbicide amount 320 g/ha
# Procedure, shortened: as §2
# [9] = test system: Amaranthus retroflexus; experiment: Test Example 5: herbicidal effect by foliage application, plastic box (symbol N); settings: 320 g/ha, 3 weeks after application
# Procedure, shortened: (§4)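 Herbicide, formulated as an emulsion and diluted in water, is sprayed onto the aerial parts of 14-day seedlings. These were grown at 25° C. to 30° C. in sterilized diluvial soil; effects are graded after 3 weeks.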
# [10] = test system: Monochoria vaginalis; experiment: Test Example 1: herbicidal activity, application before weed generation in submerged conditions (symbol C); settings: application herbicide amount 320 g/ha
# Procedure, shortened: as §1
# [11] = test system: rice; experiment: Test Example 4: effect on crop by soil treatment (symbol b); settings: application herbicide amount 320 g/ha
# Procedure, shortened: (§5)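 Soil-treatment setup: crop and weed seeds were spot-sown into sterilized diluvial soil, then buried beneath approximately 1.5 cm of it, and the boxes were housed in a 25–30° C. greenhouse.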
# [12] = test system: Setaria viridis; experiment: Test Example 5: herbicidal effect by foliage application, plastic box (symbol G); settings: 320 g/ha, 3 weeks after application
# Procedure, shortened: as §4
# [13] = test system: rapeseed; experiment: Test Example 4: effect on crop by soil treatment (symbol g); settings: application herbicide amount 320 g/ha
# Procedure, shortened: as §5
# [14] = test system: rapeseed; experiment: Test Example 5: effect on crop by foliage application, plastic box (symbol g); settings: 320 g/ha, 3 weeks after application
# Procedure, shortened: as §3
# [15] = test system: Amaranthus retroflexus; experiment: Test Example 4: herbicidal effect by soil treatment (symbol N); settings: application herbicide amount 320 g/ha
# Procedure, shortened: as §2
# [16] = test system: Echinochloa crus-galli var. crus-galli; experiment: Test Example 5: herbicidal effect by foliage application, plastic box (symbol H); settings: 320 g/ha, 3 weeks after application
# Procedure, shortened: as §4
smiles,measurement,setting,value
CC(CC1CC(O)=C(c2c(C)cc(-n3cc(Cl)cn3)cc2C)C1=O)=NOCC(F)(F)F (stereo not shown) [9-010],"Effect on crop grade, c: corn",[1],1 (Herbicidal ratio of 5% or higher and lower than 20%)
same,E herbicidal effect grade,[2],5 (Herbicidal ratio of 90% or more (almost completely withered))
same,A (Echinochloa oryzacola Vasing.) herbicidal effect grade,[3],5 (Herbicidal ratio of 90% or more (almost completely withered))
same,"Herbicidal effect grade, P: Stellaria media",[4],0 (Herbicidal ratio of 5% or lower (almost no effect))
same,b (directly sowed rice plant) effect on crop grade,[5],5 (Herbicidal ratio of 90% or more (almost completely withered))
same,B (Scirpus juncoides) herbicidal effect grade,[6],5 (Herbicidal ratio of 90% or more (almost completely withered))
same,"f: beet, effect on crop grade",[7],0 (Herbicidal ratio of 5% or lower (almost no effect))
same,"Herbicidal effect grade, H: Echinochloa crus-galli var. crus-galli",[8],5 (Herbicidal ratio of 90% or more (almost completely withered))
same,"N: Amaranthus retroflexus, herbicidal effect grade",[9],3 (Herbicidal ratio of 40% or higher and lower than 70%)
same,C (Monochoria vaginalis) herbicidal effect grade,[10],4 (Herbicidal ratio of 70% or higher and lower than 90%)
same,"Effect on crop grade, b: directly sowed rice plant",[11],5 (Herbicidal ratio of 90% or more (almost completely withered))
same,"G: Setaria viridis, herbicidal effect grade",[12],5 (Herbicidal ratio of 90% or more (almost completely withered))
same,"Effect on crop grade, g: rapeseed",[13],0 (Herbicidal ratio of 5% or lower (almost no effect))
same,"g: rapeseed, effect on crop grade",[14],3 (Herbicidal ratio of 40% or higher and lower than 70%)
same,"Herbicidal effect grade, N: Amaranthus retroflexus",[15],0 (Herbicidal ratio of 5% or lower (almost no effect))
same,"H: Echinochloa crus-galli var. crus-galli, herbicidal effect grade",[16],5 (Herbicidal ratio of 90% or more (almost completely withered))
CC#Cc1cc(C)c(C2=C(O)CC(CC(C)=NOCC(F)(F)F)C2=O)c(C)c1 (stereo not shown) [9-011],"Effect on crop grade, c: corn",[1],5 (Herbicidal ratio of 90% or more (almost completely withered))
same,E herbicidal effect grade,[2],5 (Herbicidal ratio of 90% or more (almost completely withered))
same,A (Echinochloa oryzacola Vasing.) herbicidal effect grade,[3],5 (Herbicidal ratio of 90% or more (almost completely withered))
same,"Herbicidal effect grade, P: Stellaria media",[4],0 (Herbicidal ratio of 5% or lower (almost no effect))
same,b (directly sowed rice plant) effect on crop grade,[5],5 (Herbicidal ratio of 90% or more (almost completely withered))
same,B (Scirpus juncoides) herbicidal effect grade,[6],5 (Herbicidal ratio of 90% or more (almost completely withered))
same,"f: beet, effect on crop grade",[7],0 (Herbicidal ratio of 5% or lower (almost no effect))
same,"Herbicidal effect grade, H: Echinochloa crus-galli var. crus-galli",[8],5 (Herbicidal ratio of 90% or more (almost completely withered))
same,"N: Amaranthus retroflexus, herbicidal effect grade",[9],2 (Herbicidal ratio of 20% or higher and lower than 40%)
same,C (Monochoria vaginalis) herbicidal effect grade,[10],4 (Herbicidal ratio of 70% or higher and lower than 90%)
same,"Effect on crop grade, b: directly sowed rice plant",[11],5 (Herbicidal ratio of 90% or more (almost completely withered))
same,"G: Setaria viridis, herbicidal effect grade",[12],5 (Herbicidal ratio of 90% or more (almost completely withered))
same,"Effect on crop grade, g: rapeseed",[13],4 (Herbicidal ratio of 70% or higher and lower than 90%)
same,"g: rapeseed, effect on crop grade",[14],4 (Herbicidal ratio of 70% or higher and lower than 90%)
same,"Herbicidal effect grade, N: Amaranthus retroflexus",[15],0 (Herbicidal ratio of 5% or lower (almost no effect))
same,"H: Echinochloa crus-galli var. crus-galli, herbicidal effect grade",[16],5 (Herbicidal ratio of 90% or more (almost completely withered))
CC(CC1CC(OC(=O)COc2ccccc2)=C(c2c(C)cc(-n3cc(Cl)cn3)cc2C)C1=O)=NOCC(F)(F)F (stereo not shown) [9-012],"Effect on crop grade, c: corn",[1],2 (Herbicidal ratio of 20% or higher and lower than 40%)
same,E herbicidal effect grade,[2],5 (Herbicidal ratio of 90% or more (almost completely withered))
same,A (Echinochloa oryzacola Vasing.) herbicidal effect grade,[3],5 (Herbicidal ratio of 90% or more (almost completely withered))
same,"Herbicidal effect grade, P: Stellaria media",[4],0 (Herbicidal ratio of 5% or lower (almost no effect))
same,b (directly sowed rice plant) effect on crop grade,[5],5 (Herbicidal ratio of 90% or more (almost completely withered))
same,B (Scirpus juncoides) herbicidal effect grade,[6],4 (Herbicidal ratio of 70% or higher and lower than 90%)
same,"f: beet, effect on crop grade",[7],0 (Herbicidal ratio of 5% or lower (almost no effect))
same,"Herbicidal effect grade, H: Echinochloa crus-galli var. crus-galli",[8],5 (Herbicidal ratio of 90% or more (almost completely withered))
same,"N: Amaranthus retroflexus, herbicidal effect grade",[9],4 (Herbicidal ratio of 70% or higher and lower than 90%)
same,C (Monochoria vaginalis) herbicidal effect grade,[10],2 (Herbicidal ratio of 20% or higher and lower than 40%)
same,"Effect on crop grade, b: directly sowed rice plant",[11],5 (Herbicidal ratio of 90% or more (almost completely withered))
same,"G: Setaria viridis, herbicidal effect grade",[12],5 (Herbicidal ratio of 90% or more (almost completely withered))
same,"Effect on crop grade, g: rapeseed",[13],0 (Herbicidal ratio of 5% or lower (almost no effect))
same,"g: rapeseed, effect on crop grade",[14],3 (Herbicidal ratio of 40% or higher and lower than 70%)
same,"Herbicidal effect grade, N: Amaranthus retroflexus",[15],0 (Herbicidal ratio of 5% or lower (almost no effect))
same,"H: Echinochloa crus-galli var. crus-galli, herbicidal effect grade",[16],5 (Herbicidal ratio of 90% or more (almost completely withered))
CC#Cc1cc(C)c(C2=C(OC(=O)COc3ccccc3)CC(CC(C)=NOCC(F)(F)F)C2=O)c(C)c1 (stereo not shown) [9-013],"Effect on crop grade, c: corn",[1],5 (Herbicidal ratio of 90% or more (almost completely withered))
same,E herbicidal effect grade,[2],5 (Herbicidal ratio of 90% or more (almost completely withered))
same,A (Echinochloa oryzacola Vasing.) herbicidal effect grade,[3],5 (Herbicidal ratio of 90% or more (almost completely withered))
same,"Herbicidal effect grade, P: Stellaria media",[4],0 (Herbicidal ratio of 5% or lower (almost no effect))
same,b (directly sowed rice plant) effect on crop grade,[5],5 (Herbicidal ratio of 90% or more (almost completely withered))
same,B (Scirpus juncoides) herbicidal effect grade,[6],5 (Herbicidal ratio of 90% or more (almost completely withered))
same,"f: beet, effect on crop grade",[7],4 (Herbicidal ratio of 70% or higher and lower than 90%)
same,"Herbicidal effect grade, H: Echinochloa crus-galli var. crus-galli",[8],5 (Herbicidal ratio of 90% or more (almost completely withered))
same,"N: Amaranthus retroflexus, herbicidal effect grade",[9],0 (Herbicidal ratio of 5% or lower (almost no effect))
same,C (Monochoria vaginalis) herbicidal effect grade,[10],1 (Herbicidal ratio of 5% or higher and lower than 20%)
same,"Effect on crop grade, b: directly sowed rice plant",[11],5 (Herbicidal ratio of 90% or more (almost completely withered))
same,"G: Setaria viridis, herbicidal effect grade",[12],5 (Herbicidal ratio of 90% or more (almost completely withered))
same,"Effect on crop grade, g: rapeseed",[13],4 (Herbicidal ratio of 70% or higher and lower than 90%)
same,"g: rapeseed, effect on crop grade",[14],4 (Herbicidal ratio of 70% or higher and lower than 90%)
same,"Herbicidal effect grade, N: Amaranthus retroflexus",[15],1 (Herbicidal ratio of 5% or higher and lower than 20%)
same,"H: Echinochloa crus-galli var. crus-galli, herbicidal effect grade",[16],5 (Herbicidal ratio of 90% or more (almost completely withered))
